Measurements taken from patent US20240130979A1, “COMPOSITIONS AND METHODS FOR TREATMENT OF SKIN CONDITIONS” (EpiTop, Inc., priority 2022, published 2024).

Assays:
Type in all cases: cell-based, human
[1] = system: HBD-3; assay: HBD-3 gene expression in NHEKs (Example 5); settings: 0.01% and 0.02% thujopsene, 24 hours, dose-dependent, versus no thujopsene (FIG. 5A)
Protocol: (§1) The upregulation of expressions of HBD-3, LL-37, OR2AT4, and/or SIRT1 can promote would healing and the upregulation of SIRT1 can inhibit tumor cell growth in skin cancer. To investigate the effects of thujopsene on expression of RBD-3, LL-37, OR2AT4, and SIRT1, NHEKs were differentiated in the presence of 1.3 mmol/L of CaCl2) for 3 days. Then cells were stimulated with 0.01% or 0.02% thujopsene for an additional 24 hours. The cell culture medium with 0.1% was used as a vehicle control because thujopsene was diluted with 0.1% of DMSO in cell culture medium.
(§2) Total RNA was isolated from to the cells, and real time RT-PCRs were performed by using an ABI Prism 7300 sequence detector.

[2] = system: LL-37; assay: LL-37 gene expression in NHEKs (Example 5); settings: 0.01% and 0.02% thujopsene, 24 hours, dose-dependent, versus no thujopsene (FIG. 5B)
Protocol: as §1, §2

[3] = system: IL-6; assay: LPS-induced IL-6 gene expression in NHEKs (Example 6); settings: thujopsene (0.01%) plus LPS (1 μg/mL), 24 hours, versus LPS alone (FIG. 6A)
Protocol: (§3) IL-6 aging process and wrinkling and is induced by lipopolysaccharide (LPS) (PMID: 23659624). SIRT1 inhibits skin aging and wrinkling process (PMID: 24011076). To investigate the effects of thujopsene on expression of IL-6 and SIRT1, NHEKs were seeded at 2×10^5 cells per well and differentiated in the presence of 1.3 mmol/L of CaCl2) for 3 days. NHEKs were stimulated with 0.01% or 0.02% thujopsene for 24 hours, and then cells were stimulated with LPS (1 μg/mL) alone or a combination of LPS (1 μg/mL) and thujopsene (0.01%) for an additional 24 hours. The cell culture medium with 0.1% DMSO was used as a vehicle. Total RNAs were isolated from cells, and real time RT-PCRs were performed by using an ABI Prism 7300 sequence detector.

[4] = system: SIRT1; assay: SIRT1 gene expression in NHEKs (Example 6)
Protocol: as §3

[5] = system: SIRT1; assay: SIRT1 gene expression in NHEKs (Example 5); settings: 0.01% and 0.02% thujopsene, 24 hours, dose-dependent, versus no thujopsene (FIG. 5D)
Protocol: as §1, §2

[6] = system: FLG; assay: PM2.5-mediated inhibition of FLG in NHEKs (Example 4); settings: 0.01% thujopsene 24 hours, then PM2.5 (1 ng/mL) plus thujopsene 48 hours (FIG. 4A)
Protocol: (§4) To investigate the effects of the PM2.5 on the expression of FLG and LOR, NHEKs were differentiated in the presence of 1.3 mmol/L of CaCl2) for 3 days. Then cells were stimulated with PM2.5 (1 ng/mL) for an additional 48 hours.
(§5) To examine whether thujopsene blocks PM2.5-mediated inhibition of epidermal barrier proteins such as FLG and LOR, NHEKs were incubated with thujopsene (0.01 v/v %) for 24 hours, and then cells were stimulated with PM2.5 (1 ng/mL) or combination of thujopsene (0.01 v/v %) and PM2.5 for an additional 48 hours. Total RNAs were isolated from the cells, and real time RT-PCR was performed. EpiLife cell culture medium with 0.1% DMSO was used as a vehicle control for all in vitro experiments, as PM2.5 was diluted with EpiLife cell culture medium with 0.1% DMSO.

[7] = system: NHEKs; assay: LDH cell cytotoxicity assay in NHEKs (Example 7)
Protocol: LDH cell cytotoxicity assay: NHEKs were plated at 2×10^5 cells per well in a 24-well plate and differentiated in the presence of 1.3 mmol/L of CaCl2) for 3 days. To examine cell toxicity of thujopsene, the cells were treated with various concentrations of thujopsene for 48 hours, and lactate dehydrogenase (LDH) release was then determined using CytoTox-One Homogeneous Membrane Integrity Assay (Promega, Madison, WI, USA) according to the manufacturer's instructions. Fluorescence was measured on a DTX880 Multimode Detector (Beckman Coulter, Brea, CA, USA) with an excitation wavelength of 560 nm and an emission wavelength of 590 nm. Samples were tested in triplicate and fluorescence results were normalized by subtracting a PBS blank and compared to the keratinocyte LDH release in response to the treatment with 1% triton X-100 solution (maximum LDH release).

[8] = system: FLG; assay: FLG gene expression in keratinocytes from atopic dermatitis patients (Example 3); settings: keratinocytes from AD patients, 0.01 v/v % thujopsene, 24 hours, P<0.05 (FIG. 3A)
Protocol: (§6) Human epidermal keratinocytes taken from atopic dermatitis (AD) patients were differentiated in the presence of 1.3 mmol/L of CaCl2) for 3 days, and then the cells were stimulated with 0% and 0.01 v/v % of thujopsene for an additional 24 hours. Total RNA was isolated from keratinocytes. Gene expression levels of FLG and LOR were determined by real-time RT-PCR and normalized to the corresponding 18s RNA transcript in the cultured keratinocytes.

[9] = system: OR2AT4; assay: OR2AT4 gene expression in NHEKs (Example 5); settings: 0.01% and 0.02% thujopsene, 24 hours, dose-dependent, versus no thujopsene (FIG. 5C)
Protocol: as §1, §2

[10] = system: LOR; assay: LOR gene expression in keratinocytes from atopic dermatitis patients (Example 3); settings: keratinocytes from AD patients, 0.01 v/v % thujopsene, 24 hours, P=0.01 (FIG. 3B)
Protocol: as §6

[11] = system: LOR; assay: LOR gene expression in NHEKs, real-time RT-PCR (Example 1); settings: 0.01 and 0.02 v/v % thujopsene, 24 hours, dose-dependent, normalized to 18s RNA (FIG. 1B)
Protocol: (§7) Normal human epidermal keratinocytes (NHEKs) were cultured in a conventional way. NHEKs (Life Technologies, Grand Island, NY, USA) were derived from neonatal foreskin and were grown in serum-free EpiLife cell culture medium (Life Technologies) containing 0.06 mmol/L calcium chloride, 1% human keratinocyte growth supplement S7 (Life Technologies), and 1% of gentamicin/amphotericin. To investigate the effects of thujopsene on the expressions of FLG and LOR, NHEKs were seeded at 2×10^5 cells per well (24-well plate) and differentiated in the presence of 1.3 mmol/L of CaCl2) for 3 days. Then the cells were stimulated with 0 v/v %, 0.01 v/v % and 0.02 v/v % of thujopsene, IL-4 and IL-13, or IFN-γ for an additional 24 hours. Total RNA was isolated from NHEKs. Gene expression levels of FLG and LOR were determined by real-time RT-PCR using an ABI Prism 7300 sequence detector. Gene expressions of FLG and LOR were normalized to the corresponding 18s RNA transcript in the cultured NHEKs.

[12] = system: FLG; assay: FLG gene expression in NHEKs, real-time RT-PCR (Example 1); settings: 0.01 and 0.02 v/v % thujopsene, 24 hours, dose-dependent, normalized to 18s RNA (FIG. 1A)
Protocol: as §7

[13] = system: LOR; assay: PM2.5-mediated inhibition of LOR in NHEKs (Example 4); settings: 0.01% thujopsene 24 hours, then PM2.5 (1 ng/mL) plus thujopsene 48 hours (FIG. 4B)
Protocol: as §4, §5

[14] = system: FLG; assay: Th2 cytokine (IL-4 and IL-13)-mediated inhibition of FLG in NHEKs (Example 2); settings: 0.01% thujopsene 24 hours, then IL-4 and IL-13 with thujopsene for 2 days (FIG. 2)
Protocol: NHEKs were differentiated in the presence of 1.3 mmol/L of CaCl2) for 3 days. HEKs were incubated with 0.01% of thujopsene for 24 hours, and then the cells were continuously stimulated with IL-4 and IL-13 in the presence or absence of 0.01% of thujopsene for an additional 2 days. The gene expression of FLG was examined using real-time RT-PCR.

CC1=CC[C@]2(C)CCCC(C)(C)[C@@]23C[C@@H]13 [thujopsene]
gene expression of RBD-3 [1]: significantly increased | gene expression of LL-37 [2]: significantly increased | LPS-induced expression of IL-6 [3]: significantly (P<0.01) attenuated | gene expression of SIRT1 ([4]; 0.01% thujopsene, P<0.05 versus no thujopsene (FIG. 6B)): significantly increased | gene expression of SIRT1 ([4]; 0.02% thujopsene, P<0.01 versus no thujopsene (FIG. 6B)): significantly increased | gene expression of SIRT1 [5]: significantly increased | level of expression of the FLG gene, PM2.5 plus thujopsene versus control [6]: higher than the control | toxicity to NHEKs ([7]; thujopsene up to 0.04 v/v % (FIG. 7 legend)): not toxic | LDH release compared to cells treated with media alone ([7]; thujopsene up to 4 v/v %, 48 hours (FIG. 7)): significantly decreased | toxicity to NHEKs ([7]; thujopsene up to 4 v/v %, 48 hours, LDH release (FIG. 7)): not toxic | FLG gene expression compared to vehicle [8]: significantly increased | gene expression of OR2AT4 [9]: significantly increased | LOR gene expression compared to vehicle [10]: significantly increased | LOR gene expression [11]: significantly increases | FLG gene expression [12]: significantly increases | level of expression of the LOR gene, PM2.5 plus thujopsene versus control [13]: about equal to the control | FLG gene expression, Th2 cytokines plus thujopsene compared with Th2 cytokines alone [14]: significantly (P<0.01) increased
